Measurements from ChEMBL document CHEMBL5042472, “Design, Synthesis, and Biological Evaluation of a Novel Photocaged PI3K Inhibitor toward Precise Cancer Treatment” (J Med Chem, 2021).
Active and inactive are the calls of the source. The rule behind the calls is not given here.

Legend:
HGC-27 [1] = assay: Antiproliferative activity against human HGC-27 cells assessed as reduction in cell viability incubated in dark for 96 hrs by MTT assay; format: functional, cell-based; details: HGC-27, 96 h
[2] = Plasma protein binding in rat at 1 uM by LC-MS/MS analysis; format: ADME, cell-free; details: read-out: PPB (converted)
HGC-27 [3] = assay: Induction of cell cycle arrest in human HGC-27 cells assessed as accumulation at G0/G1 phase at 100 nM incubated for 24 hrs by flow cytometry; format: functional, cell-based
[4] = Stability in rat liver microsomes assessed as half life at 1 uM in presence of NADPH by LC-MS/MS analysis; format: ADME, Microsome
[5] = Stability in rat plasma assessed as half life at 1 uM measured upto 120 min by LC-MS/MS analysis; format: ADME, cell-free
HCT-116 [6] = assay: Antiproliferative activity against human HCT-116 cells assessed as reduction in cell viability irradiated with 365 nm of UV for 5 mins and incubated in dark for 96 hrs by MTT assay; format: functional, cell-based; details: HCT-116, light or radiation study
HGC-27 [7] = assay: Inhibition of colony formation in human HGC-27 cells at 100 nM incubated for 24 hrs by crystal violet staining based assay; format: functional, cell-based
Homo sapiens [8] = species on record: Homo sapiens; assay: Anticancer activity against KOES-007 patient derived stomach cancer organoid assessed as inhibition of cell growth irradiated with 365 nm of UV light for 2 mins and incubated for 120 hrs; format: functional, tissue-based
HGC-27 [9] = assay: Inhibition of PI3K/AKT signalling pathway in human HGC-27 cells assessed as downregulation of AKT phosphorylation at Ser473 residue at 100 nM irradiated with 365 nm UV light for 5 mins and incubated for 24 hrs by Western blot; format: cell-based
HCT-116 [10] = assay: Antiproliferative activity against human HCT-116 cells assessed as reduction in cell viability incubated in dark for 96 hrs by MTT assay; format: functional, cell-based; details: HCT-116, 96 h
HCT-116 [11] = assay: Inhibition of PI3K/AKT signalling pathway in human HCT-116 cells assessed as downregulation of AKT phosphorylation at […] residue at 100 nM irradiated with 365 nm UV light for 5 mins and incubated for 24 hrs by Western blot; format: cell-based
HCT-116 [12] = assay: Inhibition of PI3K/AKT signalling pathway in human HCT-116 cells assessed as downregulation of AKT phosphorylation at Ser473 residue at 100 nM irradiated with 365 nm UV light for 5 mins and incubated for 24 hrs by Western blot; format: cell-based
AGS = assay: Antiproliferative activity against human AGS cells assessed as reduction in cell viability irradiated with 365 nm of UV for 5 mins and incubated in dark for 96 hrs by MTT assay; format: functional, cell-based; details: light or radiation study
HCT-116 [13] = assay: Anticancer activity against fluorescent labeled human HCT-116 cells xenografted in yolk of zebra embryo assessed as reduction in tumor size by measuring fluorescence density at 31.3 nM irradiated with 365 nm of UV light incubated for 48 hrs by fluorescence microscopic analysis; format: functional, cell-based
[14] = Stability in dog plasma assessed as half life at 1 uM measured upto 120 min by LC-MS/MS analysis; format: ADME, cell-free, Canis lupus familiaris
HCT-116 [15] = assay: Induction of apoptosis in human HCT-116 cells assessed as increase in number of cells in sub-G0 phase at 100 nM incubated for 24 hrs by flow cytometry; format: functional, cell-based
[16] = biological target: Phosphatidylinositol 4,5-bisphosphate 3-kinase catalytic subunit alpha isoform (Homo sapiens, UniProt P42336); assay: Inhibition of PI3K alpha (unknown origin) using PIP2 as substrate incubated in dark at room temperature for 1 hr in presence of ATP by ADP-Glo luminescent assay
Sequence of Phosphatidylinositol 4,5-bisphosphate 3-kinase catalytic subunit alpha isoform (P42336 whole entry, canonical isoform): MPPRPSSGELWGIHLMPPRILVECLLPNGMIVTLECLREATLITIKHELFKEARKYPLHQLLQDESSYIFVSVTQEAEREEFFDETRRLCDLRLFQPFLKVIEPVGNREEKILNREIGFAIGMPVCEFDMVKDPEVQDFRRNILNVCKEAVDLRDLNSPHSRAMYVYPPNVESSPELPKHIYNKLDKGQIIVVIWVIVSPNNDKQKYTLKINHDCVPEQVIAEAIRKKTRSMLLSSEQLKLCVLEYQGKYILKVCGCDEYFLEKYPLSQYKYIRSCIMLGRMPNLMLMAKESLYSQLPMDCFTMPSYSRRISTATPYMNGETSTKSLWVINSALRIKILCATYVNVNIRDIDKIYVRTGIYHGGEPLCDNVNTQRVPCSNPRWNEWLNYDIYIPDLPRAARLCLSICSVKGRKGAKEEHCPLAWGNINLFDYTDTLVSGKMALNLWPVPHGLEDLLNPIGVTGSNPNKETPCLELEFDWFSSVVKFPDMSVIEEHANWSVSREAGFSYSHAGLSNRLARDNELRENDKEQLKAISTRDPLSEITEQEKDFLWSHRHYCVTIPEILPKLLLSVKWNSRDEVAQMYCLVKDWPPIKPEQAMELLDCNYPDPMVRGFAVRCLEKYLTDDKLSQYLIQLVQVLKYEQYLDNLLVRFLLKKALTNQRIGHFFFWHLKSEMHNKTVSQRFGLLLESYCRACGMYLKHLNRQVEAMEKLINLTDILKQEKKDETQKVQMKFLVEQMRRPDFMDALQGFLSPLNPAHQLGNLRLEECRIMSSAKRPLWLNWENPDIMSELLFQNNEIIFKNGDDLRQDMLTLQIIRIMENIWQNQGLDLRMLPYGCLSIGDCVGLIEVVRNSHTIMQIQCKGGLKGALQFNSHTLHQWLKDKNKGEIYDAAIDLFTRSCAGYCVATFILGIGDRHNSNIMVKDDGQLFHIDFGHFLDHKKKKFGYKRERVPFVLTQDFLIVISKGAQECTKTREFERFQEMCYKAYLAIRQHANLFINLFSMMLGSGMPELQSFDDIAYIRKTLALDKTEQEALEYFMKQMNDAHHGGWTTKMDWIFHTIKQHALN

[17] = Retention time of the compound by HPLC analysis; format: physicochemical
HGC-27 [18] = assay: Inhibition of PI3K/AKT signalling pathway in human HGC-27 cells assessed as downregulation of SRP6 phosphorylation at 100 nM incubated for 24 hrs under dark condition by Western blot; format: cell-based
HGC-27 [19] = assay: Induction of cell cycle arrest in human HGC-27 cells assessed as accumulation at G0/G1 phase at 100 nM irradiated with 365 nm UV light for 5 mins and incubated for 24 hrs by flow cytometry; format: functional, cell-based
Homo sapiens [20] = species on record: Homo sapiens; assay: Anticancer activity against KOCO-096 patient derived colon cancer organoid assessed as inhibition of cell growth irradiated with 365 nm of UV light for 2 mins and incubated for 120 hrs; format: functional, tissue-based
HGC-27 [21] = assay: Antiproliferative activity against human HGC-27 cells assessed as reduction in cell viability irradiated with 365 nm of UV for 5 mins and incubated in dark for 96 hrs by MTT assay; format: functional, cell-based; details: HGC-27, light or radiation study
Homo sapiens [22] = species on record: Homo sapiens; assay: Anticancer activity against KOCO-096 patient derived colon cancer organoid assessed as inhibition of cell growth irradiated with 365 nm of UV light for 5 mins and incubated for 120 hrs; format: functional, tissue-based
MGC-803 = assay: Antiproliferative activity against human MGC-803 cells assessed as reduction in cell viability incubated in dark for 96 hrs by MTT assay; format: functional, cell-based; details: MGC-803, 96 h
HCT-116 [23] = assay: Inhibition of PI3K/AKT signalling pathway in human HCT-116 cells assessed as downregulation of […] phosphorylation at 100 nM incubated for 24 hrs under dark condition by Western blot; format: cell-based
MG-63 = assay: Antiproliferative activity against human MG-63 cells assessed as reduction in cell viability irradiated with 365 nm of UV for 5 mins and incubated in dark for 96 hrs by MTT assay; format: functional, cell-based; details: MG-63, light or radiation study
HCT-116 [24] = assay: Induction of cell cycle arrest in human HCT-116 cells assessed as accumulation at G0/G1 phase at 100 nM irradiated with 365 nm UV light for 5 mins incubated for 24 hrs by flow cytometry; format: functional, cell-based

fraction unbound at 1 µM [2]: 0.006 | half-life at 1 µM [4]: 1.82 min | half-life at 1 µM [5]: > 2 h | IC50 (HCT-116 [6]): 81 nM | IC50 (HCT-116 [10]): 1460 nM | IC50 (AGS): 70.3 nM | half-life at 1 µM [14]: > 2 h | IC50 [16]: 343 nM | Retention_time [17]: 4.7 min | IC50 (MGC-803): 1740 nM
SMILES: COc1cc(CN(c2cc(-c3cc(OC4CCOCC4)c4ncnc(C)c4c3)cnc2OC)S(=O)(=O)c2ccc(F)cc2F)c([N+](=O)[O-])cc1OC
IC50 (HGC-27 [1]): 248 nM | Activity (HGC-27 [3]): inactive | inhibition (HGC-27 [7]): inactive | Activity (Homo sapiens [8]): Active | inhibition (HGC-27 [9]): Active | inhibition (HCT-116 [11]): Active | inhibition (HCT-116 [12]): Active | Activity (HCT-116 [13]): Active | inhibition (HCT-116 [15]): Active | inhibition (HGC-27 [18]): inactive | Activity (HGC-27 [19]): Active | Activity (Homo sapiens [20]): Active | IC50 (HGC-27 [21]): 13.8 nM | Activity (Homo sapiens [22]): Dose-Dependent Effect | inhibition (HCT-116 [23]): inactive | IC50 (MG-63): 142 nM | Activity (HCT-116 [24]): inactive
